Experimental data reported in patent US9056855B2, “Metalloenzyme inhibitor compounds” (Viamet Pharmaceuticals, Inc., priority 2010, dated 2015).

Tests used:
CYP17 = molecular target: T1, CYP17 (Rattus norvegicus, UniProt P11715); experiment: Inhibition of CYP17 (rat testicular microsomes); type: biochemical; conditions: pooled rat testicular microsomes
T1 construct: from tissue; host or cells: rat testis (pooled microsomes)
T1 sequence (P11715 1-507): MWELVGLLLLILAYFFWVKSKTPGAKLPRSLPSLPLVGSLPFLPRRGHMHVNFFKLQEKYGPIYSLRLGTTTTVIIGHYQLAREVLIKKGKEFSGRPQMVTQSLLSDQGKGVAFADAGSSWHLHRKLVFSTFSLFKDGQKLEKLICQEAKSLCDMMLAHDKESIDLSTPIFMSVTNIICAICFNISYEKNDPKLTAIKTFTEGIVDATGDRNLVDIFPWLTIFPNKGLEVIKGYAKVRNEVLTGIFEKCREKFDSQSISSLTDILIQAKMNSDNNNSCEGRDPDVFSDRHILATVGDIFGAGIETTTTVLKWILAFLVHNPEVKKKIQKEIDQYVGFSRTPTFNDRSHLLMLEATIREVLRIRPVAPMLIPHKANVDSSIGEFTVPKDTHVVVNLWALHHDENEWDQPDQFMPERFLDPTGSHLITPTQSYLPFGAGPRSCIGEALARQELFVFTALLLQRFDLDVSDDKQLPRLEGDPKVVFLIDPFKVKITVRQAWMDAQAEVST
Description: CYP17 activity was assayed according to the following procedure. […] The individual test compound and isozyme inhibitor solutions were then diluted 20-fold with deionized water (50:950 v/v) to concentrations of 135, 27, 4.5, 0.9, 0.15, 0.03 and 0.005 μM. […] For active controls, blank test compound diluent was added in place of test compound solution.

CYP2C9 = CYP2C9 (Homo sapiens, UniProt P11712); experiment: Inhibition of liver cytochrome P450 enzymes, CYP2C9 (human liver microsomes)
Description: (§1) A. Inhibition of Liver Cytochrome P450 Enzymes
(§2) Solutions of each test compound were separately prepared at concentrations of 20000, 6000, 2000, 600, 200, and 60 μM by serial dilution with DMSO:MeCN (50:50 v/v). The individual test compound solutions were then diluted 20-fold with DMSO:MeCN:deionized water (5:5:180 v/v/v) to concentrations of 1000, 300, 100, 30, 10, and 3 μM. […] The mixed inhibitor solutions were then diluted 20-fold with DMSO:MeCN:deionized water (5:5:180 v/v/v) to concentrations of 300, 100, 30, 10, 3, 1, 0.3, and 0.1 μM. The percent of organic solvent attributable to the test compound or inhibitor mixture in the final reaction mixture was 2% v/v.
(§3) Pooled human liver microsome suspension (20 mg/mL) was diluted with phosphate buffer to obtain a 5 mg/mL suspension. A solution of NADPH was prepared in phosphate buffer at a concentration of 5 mM. Separate stock solutions of each substrate were prepared in DMSO:MeCN (50:50 v/v), mixed, and diluted in phosphate buffer to obtain a single solution containing each substrate at five times its experimentally determined Km concentration. The percent of organic solvent attributable to substrate mixture in the final reaction mixture was 1% v/v.
(§4) Substrate solution and microsome suspension were combined in a 1:1 volume ratio, mixed, and distributed to reaction wells of a PCR plate. Individual test compound or combined inhibitor solutions at each concentration were added to the wells and mixed by repetitive aspirate-dispense cycles. […] Reaction mixtures were allowed to equilibrate at 37° C. for approximately two minutes before adding NADPH solution to initiate reaction, followed by pipette mixing of reaction mixture. Ten minutes after addition of NADPH, the reaction mixtures were quenched with cold acetonitrile. […] A portion of the supernatant was analyzed by gradient reverse-phase HPLC with detection by electrospray ionization triple quadrupole mass spectrometry in the positive ion mode.
(§5) Data was fitted to sigmoid dose-response curves and the inhibitory potency of each test compound was determined as its IC50 value.

CYP2C19 = CYP2C19 (Homo sapiens, UniProt P33261); experiment: Inhibition of liver cytochrome P450 enzymes, CYP2C19 (human liver microsomes)
Description: as §1, §2, §3, §4, §5

CYP3A4 = CYP3A4 (Homo sapiens, UniProt P08684); experiment: Inhibition of liver cytochrome P450 enzymes, CYP3A4 (human liver microsomes)
Description: as §1, §2, §3, §4, §5

Sequence of CYP2C9 (P11712 whole entry): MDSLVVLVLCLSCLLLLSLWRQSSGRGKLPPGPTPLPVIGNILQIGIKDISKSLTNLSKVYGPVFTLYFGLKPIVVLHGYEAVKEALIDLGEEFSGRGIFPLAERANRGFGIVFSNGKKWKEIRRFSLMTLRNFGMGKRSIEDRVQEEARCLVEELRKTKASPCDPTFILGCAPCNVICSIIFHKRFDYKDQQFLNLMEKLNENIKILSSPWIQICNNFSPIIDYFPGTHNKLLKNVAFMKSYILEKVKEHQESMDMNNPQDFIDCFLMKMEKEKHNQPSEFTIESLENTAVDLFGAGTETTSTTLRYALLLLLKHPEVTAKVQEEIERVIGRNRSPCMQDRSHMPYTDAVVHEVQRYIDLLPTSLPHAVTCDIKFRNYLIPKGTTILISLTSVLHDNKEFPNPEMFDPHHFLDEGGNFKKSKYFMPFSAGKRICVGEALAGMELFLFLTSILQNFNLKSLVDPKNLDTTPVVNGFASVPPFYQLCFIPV
Sequence of CYP2C19 (P33261 whole entry): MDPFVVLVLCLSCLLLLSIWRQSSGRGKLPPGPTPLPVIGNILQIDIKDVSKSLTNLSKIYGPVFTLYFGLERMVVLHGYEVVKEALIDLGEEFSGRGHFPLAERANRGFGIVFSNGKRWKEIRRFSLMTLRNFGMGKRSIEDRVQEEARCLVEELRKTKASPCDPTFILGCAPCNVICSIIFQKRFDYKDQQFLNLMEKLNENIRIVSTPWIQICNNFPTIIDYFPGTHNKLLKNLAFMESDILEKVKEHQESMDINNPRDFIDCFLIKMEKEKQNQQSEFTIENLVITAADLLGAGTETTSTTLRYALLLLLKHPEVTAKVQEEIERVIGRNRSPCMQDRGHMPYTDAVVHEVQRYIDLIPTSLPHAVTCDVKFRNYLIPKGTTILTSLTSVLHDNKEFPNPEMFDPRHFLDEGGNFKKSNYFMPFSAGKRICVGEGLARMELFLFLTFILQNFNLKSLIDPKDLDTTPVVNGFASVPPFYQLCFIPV
Sequence of CYP3A4 (P08684 whole entry): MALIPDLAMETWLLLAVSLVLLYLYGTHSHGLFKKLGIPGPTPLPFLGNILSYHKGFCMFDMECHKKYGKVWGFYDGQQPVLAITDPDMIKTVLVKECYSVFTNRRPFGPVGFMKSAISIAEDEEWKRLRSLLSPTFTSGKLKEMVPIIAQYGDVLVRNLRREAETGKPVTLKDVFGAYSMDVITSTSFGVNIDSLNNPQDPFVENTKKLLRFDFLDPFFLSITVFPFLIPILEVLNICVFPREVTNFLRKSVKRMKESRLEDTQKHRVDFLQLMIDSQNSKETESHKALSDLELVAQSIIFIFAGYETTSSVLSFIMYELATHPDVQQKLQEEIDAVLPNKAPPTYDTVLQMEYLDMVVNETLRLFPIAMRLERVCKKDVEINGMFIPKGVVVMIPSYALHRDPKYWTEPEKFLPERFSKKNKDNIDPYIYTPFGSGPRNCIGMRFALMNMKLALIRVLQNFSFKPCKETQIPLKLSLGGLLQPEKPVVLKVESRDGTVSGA

COc1cc2ccc(C(O)(c3ccncn3)C(C)C)cc2cc1OC (centres unmarked) [Example 1, 1-(6,7-dimethoxynaphthalen-2-yl)-2-methyl-1-(pyrimidin-4-yl)propan-1-ol]
IC50 (CYP17): 0.44 µM
IC50 (CYP2C9): 7.8 µM
IC50 (CYP2C19): 8.5 µM
IC50 (CYP3A4): 18 µM

CSc1ccc2nc(C(O)(c3ccncn3)C(C)C)ccc2c1 (centres unmarked) [Example 2, 2-Methyl-1-(6-(methylthio)quinolin-2-yl)-1-(pyrimidin-4-yl)propan-1-ol]
IC50 (CYP17): 0.12 µM
IC50 (CYP2C9): 3.3 µM
IC50 (CYP2C19): 5.1 µM
IC50 (CYP3A4): 19 µM

CC(C)C(O)(c1ccncn1)c1ccc2cc(OC(F)F)ccc2n1 (centres unmarked) [Example 3, 1-(6-(Difluoromethoxy)quinolin-2-yl)-2-methyl-1-(pyrimidin-4-yl)propan-1-ol]
IC50 (CYP17): 0.08 µM
IC50 (CYP2C9): 3.5 µM
IC50 (CYP2C19): 8.7 µM
IC50 (CYP3A4): 30 µM

CC(C)C(O)(c1ccncn1)c1ccc2c(C(F)(F)F)c(-c3cccs3)ccc2n1 (centres unmarked) [Example 4, 2-methyl-1-(pyrimidin-4-yl)-1-(6-(thiophen-2-yl)-5-(trifluoromethyl)quinolin-2-yl)propan-1-ol]
IC50 (CYP17): 5.76 µM

CC(C)C(O)(c1ccncn1)c1ccc2c(C(F)(F)F)c(Cl)ccc2n1 (centres unmarked) [Example 5, 1-(6-chloro-5-(trifluoromethyl)quinolin-2-yl)-2-methyl-1-(pyrimidin-4-yl)propan-1-ol]
IC50 (CYP17): 1.75 µM

CC(C)C(O)(c1ccncn1)c1ccc2cc(OC(F)(F)F)ccc2n1 (centres unmarked) [Example 6, 2-methyl-1-(pyrimidin-4-yl)-1-(6-(trifluoromethoxy)quinolin-2-yl)propan-1-ol]
IC50 (CYP17): 0.98 µM

CC(C)C(O)(c1ccncn1)c1ccc2c(C(F)(F)F)c(OC(F)F)ccc2n1 (centres unmarked) [Example 7, 1-(6-(difluoromethoxy)-5-(trifluoromethyl)quinolin-2-yl)-2-methyl-1-(pyrimidin-4-yl)propan-1-ol]
IC50 (CYP17): 0.6 µM

CC(C)C(O)(c1ccncn1)c1ccc2c(-c3cccs3)c(OC(F)F)ccc2n1 (centres unmarked) [Example 8, 1-(6-(difluoromethoxy)-5-(thiophen-2-yl)quinolin-2-yl)-2-methyl-1-(pyrimidin-4-yl)propan-1-ol]
IC50 (CYP17): 1 µM
